In patent US20230391786A1, “cGAS INHIBITORS” (Eli Lilly and Company, priority 2022, published 2023):
Where a name gives a salt, the structure may show the parent alone. Read-outs that look alike come from different tables or passages of the source. One block for each compound: values may come before it.

Tests used:
[1] = system: cGAS activity in THP1 cells (IFNb as marker); test: Cellular assay to measure cGAS activity (IFNb production in PMA-differentiated THP1 cells stimulated by RDG-Adenovirus-GFP); type: cell-based, human; conditions: Homo sapiens
Outline: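 PMA-differentiated THP1 cells were infected with RDG-Adenovirus-GFP at 1000 MOI for 4 h, then exposed overnight to test compounds. IFNb in the supernatant was quantified by AlphaLISA as a cGAS activity marker, and IC50 was fitted with a 4-parameter logistic equation.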

recombinant human cGAS = recombinant human cGAS (Homo sapiens (Human), UniProt Q8N884); test: In vitro inhibition assay of cGAS activity (cGAMP production, RapidFire mass spectrometry); type: biochemical; conditions: 10 nM recombinant human cGAS, 60 nM 75-bp dsDNA, ATP, GTP, room temperature 3 hours, read-out: IC50 (μM), In vitro inhibition assay for Compounds 95-348
Chain of recombinant human cGAS (Q8N884 whole entry): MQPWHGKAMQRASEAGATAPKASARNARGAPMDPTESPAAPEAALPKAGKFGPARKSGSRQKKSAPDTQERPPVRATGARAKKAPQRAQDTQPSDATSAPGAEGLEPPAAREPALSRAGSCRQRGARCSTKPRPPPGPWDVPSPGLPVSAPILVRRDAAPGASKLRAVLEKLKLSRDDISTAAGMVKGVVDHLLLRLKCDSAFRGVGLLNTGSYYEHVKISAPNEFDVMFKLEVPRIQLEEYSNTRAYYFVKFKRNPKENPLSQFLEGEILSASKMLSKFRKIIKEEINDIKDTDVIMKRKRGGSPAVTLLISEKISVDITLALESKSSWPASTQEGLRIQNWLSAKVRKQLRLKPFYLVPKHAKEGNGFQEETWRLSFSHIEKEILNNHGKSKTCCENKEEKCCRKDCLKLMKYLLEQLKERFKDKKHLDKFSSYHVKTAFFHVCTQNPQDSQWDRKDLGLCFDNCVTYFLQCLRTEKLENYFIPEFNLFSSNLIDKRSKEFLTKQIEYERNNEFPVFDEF
Outline: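 Full-length His6-tagged human cGAS (10 nM, E. coli-expressed) was incubated 3 h at room temperature with 60 nM 75-bp dsDNA, ATP, 50 μM GTP and compound at pH 7.5 with 5 mM MgCl2. cGAMP formation was measured by RapidFire mass spectrometry, and IC50 was taken from a 4-parameter logistic fit.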

[2] = THP-1, THP1 cells, PMA differentiated, RDG-Adenovirus-GFP 1000 MOI, IFNb AlphaLISA, overnight incubation, read-out: IC50 (μM), Cellular assay for Compounds 95-348

SMILES: Cn1cc(-n2c(CO)c(-c3cn[nH]c3)c3ccc(Cl)c(Cl)c32)nn1 [Example 166, [6,7-Dichloro-1-(1-methyltriazol-4-yl)-3-(1H-pyrazol-4-yl)indol-2-yl]methanol]
IC50 [1, 2]: 2.83 µM
IC50 (recombinant human cGAS): 0.0931 µM

SMILES: C[C@@H](O)C(=O)NCc1[nH]c2c(Cl)c(Cl)ccc2c1-c1cn[nH]c1 [Example 167, (R)—N-((6,7-Dichloro-3-(1H-pyrazol-4-yl)-1H-indol-2-yl)methyl)-2-hydroxypropanamide]
IC50 [1, 2]: 1.86 µM
IC50 (recombinant human cGAS): 0.0672 µM

SMILES: O=C(CF)Nc1cc(Cl)c(Cl)c2[nH]cc(-c3cn[nH]c3)c12 [Example 170, N-(6,7-Dichloro-3-(1H-pyrazol-4-yl)-1H-indol-4-yl)-2-fluoroacetamide]
IC50 ([1]; THP-1, read-out: IC50 (μM), Cellular assay for Compounds 95-348): 0.129 µM
IC50 (recombinant human cGAS): 0.00567 µM

SMILES: O=C(Cc1[nH]c2c(Cl)c(Cl)ccc2c1-c1cn[nH]c1)NCc1cc[nH]n1 [Example 178, 2-[6,7-Dichloro-3-(1H-pyrazol-4-yl)-1H-indol-2-yl]-N-(1H-pyrazol-3-ylmethyl) acetamide]
IC50 [1, 2]: 3.62 µM
IC50 (recombinant human cGAS): 0.0413 µM

SMILES: CN(C)C(=O)NCC(=O)N1CCn2c(c(-c3cn[nH]c3)c3ccc(Cl)c(Cl)c32)C1 [Example 182, 3-[2-[6,7-Dichloro-10-(1H-pyrazol-4-yl)-3,4-dihydro-1H-pyrazino[1,2-a]indol-2-yl]-2-oxo-ethyl]-1,1-dimethyl-urea]
IC50 [1, 2]: > 10 µM
IC50 (recombinant human cGAS): 0.0416 µM

SMILES: O=C(Nc1cc(Cl)c(Cl)c2[nH]cc(-c3cn[nH]c3)c12)C(O)CO (stereo not drawn) [Example 185, N-[6,7-Dichloro-3-(1H-pyrazol-4-yl)-1H-indol-4-yl]-2,3-dihydroxy-propanamide]
IC50 [1, 2]: 3.44 µM
IC50 (recombinant human cGAS): 0.077 µM

SMILES: FC(F)CCNc1cc(Cl)c(Cl)c2[nH]cc(-c3cn[nH]c3)c12 [Example 188, 6,7-Dichloro-N-(3,3-difluoropropyl)-3-(1H-pyrazol-4-yl)-1H-indol-4-amine]
IC50 [1, 2]: 2.45 µM
IC50 (recombinant human cGAS): 0.0541 µM

SMILES: CC(C)(O)C(=O)NC1CCc2c(-c3cn[nH]c3)c3ccc(Cl)c(Cl)c3n2C1 (stereo not drawn) [Example 189, N-[3,4-Dichloro-10-(1H-pyrazol-4-yl)-6,7,8,9-tetrahydropyrido[1,2-a]indol-7-yl]-2-hydroxy-2-methyl-propanamide]
IC50 [1, 2]: 1.89 µM
IC50 (recombinant human cGAS): 0.0272 µM

SMILES: O=C(NC1CCc2c(-c3cn[nH]c3)c3ccc(Cl)c(Cl)c3n2C1)C1(O)CCOCC1 (stereo not drawn) [Example 190, N-[3,4-Dichloro-10-(1H-pyrazol-4-yl)-6,7,8,9-tetrahydropyrido[1,2-a]indol-7-yl]-4-hydroxy-tetrahydropyran-4-carboxamide]
IC50 [1, 2]: 2.19 µM
IC50 (recombinant human cGAS): 0.0361 µM

SMILES: Clc1ccc2c(-c3cn[nH]c3)c3n(c2c1Cl)CC(Nc1ncccn1)CC3 (stereo not drawn) [Example 191, 3,4-Dichloro-10-(1H-pyrazol-4-yl)-N-pyrimidin-2-yl-6,7,8,9-tetrahydropyrido[1,2-a]indol-7-amine]
IC50 [1, 2]: 8.53 µM
IC50 (recombinant human cGAS): 0.0763 µM

SMILES: NCCCCCC(=O)NCC(=O)NC1CCc2c(-c3cn[nH]c3)c3ccc(Cl)c(Cl)c3n2C1 (stereo not drawn) [Example 196, 6-Amino-N-[2-[[3,4-dichloro-10-(1H-pyrazol-4-yl)-6,7,8,9-tetrahydropyrido[1,2-a]indol-7-yl]amino]-2-oxo-ethyl]hexanamide formic acid salt]
IC50 [1, 2]: > 10 µM
IC50 (recombinant human cGAS): 0.064 µM

SMILES: CC(=O)Nc1cc(Cl)c(Cl)c2c1c(-c1cn[nH]c1)cn2-c1cn(CCO)nn1 [Example 199, N-[6,7-Dichloro-1-[1-(2-hydroxyethyl)triazol-4-yl]-3-(1H-pyrazol-4-yl)indol-4-yl]acetamide]
IC50 [1, 2]: 2.66 µM
IC50 (recombinant human cGAS): 0.0519 µM

SMILES: CC(=O)Nc1cc(Cl)cc2c1c(-c1cn[nH]c1)cn2-c1cn(CCO)nn1 [Example 201, N-[6-Chloro-1-[1-(2-hydroxyethyl)triazol-4-yl]-3-(1H-pyrazol-4-yl)indol-4-yl]acetamide]
IC50 [1, 2]: 4.23 µM
IC50 (recombinant human cGAS): 0.0777 µM

SMILES: CC(=O)NC1CCCn2c1c(-c1cn[nH]c1)c1c(OCC#N)cc(Cl)c(Cl)c12 (stereo not drawn) [Example 202, N-[3,4-Dichloro-1-(cyanomethoxy)-10-(1H-pyrazol-4-yl)-6,7,8,9-tetrahydropyrido[1,2-a]indol-9-yl]acetamide]
IC50 [1, 2]: 2.68 µM
IC50 (recombinant human cGAS): 0.0191 µM

Continued by falling IC50 [1, 2], values first:

IC50 [1, 2]: 1.85 µM
IC50 (recombinant human cGAS): 0.018 µM
SMILES: O=C1NCC(C(=O)N2CCn3c(c(-c4cn[nH]c4)c4ccc(Cl)c(Cl)c43)C2)O1 (stereo not drawn) [Example 180, 5-[6,7-Dichloro-10-(1H-pyrazol-4-yl)-3,4-dihydro-1H-pyrazino[1,2-a]indole-2-carbonyl]oxazolidin-2-one]

IC50 [1, 2]: 1.29 µM
IC50 (recombinant human cGAS): 0.0379 µM
SMILES: OCC(CO)CNc1cc(Cl)c(Cl)c2[nH]cc(-c3cn[nH]c3)c12 [Example 192, 2-[[[6,7-Dichloro-3-(1H-pyrazol-4-yl)-1H-indol-4-yl]amino]methyl]propane-1,3-diol]

IC50 [1, 2]: 1.29 µM
IC50 (recombinant human cGAS): 0.0184 µM
SMILES: OCC(CO)COc1cc(Cl)c(Cl)c2[nH]cc(-c3cn[nH]c3)c12 [Example 194, 2-[[6,7-Dichloro-3-(1H-pyrazol-4-yl)-1H-indol-4-yl]oxymethyl]propane-1,3-diol]

IC50 [1, 2]: 1.23 µM
IC50 (recombinant human cGAS): 0.0298 µM
SMILES: CC(=O)NCCn1cc(-c2cn[nH]c2)c2c(NCCCO)cc(Cl)c(Cl)c21 [Example 195, N-[2-[6,7-Dichloro-4-(3-hydroxypropylamino)-3-(1H-pyrazol-4-yl)indol-1-yl]ethyl]acetamide]

IC50 [1, 2]: 1.13 µM
IC50 (recombinant human cGAS): 0.0245 µM
SMILES: Clc1cc(NC2COC2)c2c(-c3cn[nH]c3)c[nH]c2c1Cl [Example 177, 6,7-Dichloro-N-(oxetan-3-yl)-3-(1H-pyrazol-4-yl)-1H-indol-4-amine]

IC50 [1, 2]: 1.13 µM
IC50 (recombinant human cGAS): 0.0385 µM
SMILES: FC(F)COc1cc(Cl)c(Cl)c2[nH]cc(-c3cn[nH]c3)c12 [Example 184, 6,7-Dichloro-4-(2,2-difluoroethoxy)-3-(1H-pyrazol-4-yl)-1H-indole]

IC50 [1, 2]: 1.06 µM
IC50 (recombinant human cGAS): 0.00893 µM
SMILES: N#CCOc1cc(Cl)c(Cl)c2c1c(-c1cn[nH]c1)cn2-c1cn(CCO)nn1 [Example 197, 22-[6,7-Dichloro-1-[1-(2-hydroxyethyl)triazol-4-yl]-3-(1H-pyrazol-4-yl)indol-4-yl]oxyacetonitrile]

IC50 [1, 2]: 1 µM
IC50 (recombinant human cGAS): 0.0463 µM
SMILES: C[C@H](O)C(=O)NCc1[nH]c2c(Cl)c(Cl)ccc2c1-c1cn[nH]c1 [Example 168, (S)—N-((6,7-Dichloro-3-(1H-pyrazol-4-yl)-1H-indol-2-yl)methyl)-2-hydroxypropanamide]

IC50 [1, 2]: 0.909 µM
IC50 (recombinant human cGAS): 0.0127 µM
SMILES: OCC(F)(F)CNc1cc(Cl)c(Cl)c2[nH]cc(-c3cn[nH]c3)c12 [Example 186, 3-[[6,7-Dichloro-3-(1H-pyrazol-4-yl)-1H-indol-4-yl]amino]-2,2-difluoro-propan-1-ol]

IC50 [1, 2]: 0.875 µM
IC50 (recombinant human cGAS): 0.0118 µM
SMILES: FCCOc1cc(Cl)c(Cl)c2[nH]cc(-c3cn[nH]c3)c12 [Example 183, 6,7-Dichloro-4-(2-fluoroethoxy)-3-(1H-pyrazol-4-yl)-1H-indole]

IC50 [1, 2]: 0.656 µM
IC50 (recombinant human cGAS): 0.0138 µM
SMILES: O=C(Nc1cc(Cl)c(Cl)c2[nH]cc(-c3cn[nH]c3)c12)C(F)(F)CO [Example 169, N-(6,7-Dichloro-3-(1H-pyrazol-4-yl)-1H-indol-4-yl)-2,2-difluoro-3-hydroxypropanamide]

IC50 [1, 2]: 0.651 µM
IC50 (recombinant human cGAS): 0.0341 µM
SMILES: O=C(Nc1cc(Cl)c(F)c2c1c(-c1cn[nH]c1)cn2-c1cn(CCO)nn1)C(F)F [Example 172, N-[6-Chloro-7-fluoro-1-[1-(2-hydroxyethyl)triazol-4-yl]-3-(1H-pyrazol-4-yl)indol-4-yl]-2,2-difluoro-acetamide]

IC50 [1, 2]: 0.466 µM
IC50 (recombinant human cGAS): 0.0145 µM
SMILES: OCCCNc1cc(Cl)c(F)c2c1c(-c1cn[nH]c1)cn2-c1cn(CCO)nn1 [Example 173, 3-[[6-Chloro-7-fluoro-1-[1-(2-hydroxyethyl)triazol-4-yl]-3-(1H-pyrazol-4-yl)indol-4-yl]amino]propan-1-ol]

IC50 [1, 2]: 0.395 µM
IC50 (recombinant human cGAS): 0.011 µM
SMILES: OCCCNc1cc(Cl)c(Cl)c2c1c(-c1cn[nH]c1)cn2-c1cn(CCO)nn1 [Example 198, 3-[[6,7-Dichloro-1-[1-(2-hydroxyethyl)triazol-4-yl]-3-(1H-pyrazol-4-yl)indol-4-yl]amino]propan-1-ol]

IC50 [1, 2]: 0.374 µM
IC50 (recombinant human cGAS): 0.00677 µM
SMILES: Cc1nnc(N2CCn3c(c(-c4cn[nH]c4)c4c(OCC#N)cc(Cl)c(Cl)c43)C2)s1 [Example 203, 2-((6,7-Dichloro-2-(5-methyl-1,3,4-thiadiazol-2-yl)-10-(1H-pyrazol-4-yl)-1,2,3,4-tetrahydropyrazino[1,2-a]indol-9-yl)oxy)acetonitrile]

IC50 [1, 2]: 0.326 µM
IC50 (recombinant human cGAS): 0.0104 µM
SMILES: OCC(F)CNc1cc(Cl)c(Cl)c2[nH]cc(-c3cn[nH]c3)c12 (stereo not drawn) [Example 187, 3-[[6,7-Dichloro-3-(1H-pyrazol-4-yl)-1H-indol-4-yl]amino]-2-fluoro-propan-1-ol]

IC50 [1, 2]: 0.292 µM
IC50 (recombinant human cGAS): 0.0282 µM
SMILES: OCCCNc1cc(Cl)cc2c1c(-c1cn[nH]c1)cn2-c1cn(CCO)nn1 [Example 200, 3-[[6-Chloro-1-[1-(2-hydroxyethyl)triazol-4-yl]-3-(1H-pyrazol-4-yl)indol-4-yl]amino]propan-1-ol]

IC50 [1, 2]: 0.143 µM
IC50 (recombinant human cGAS): 0.00322 µM
SMILES: OCCCOc1cc(Cl)c(Cl)c2[nH]cc(-c3cn[nH]c3)c12 [Example 193, 3-[[6,7-Dichloro-3-(1H-pyrazol-4-yl)-1H-indol-4-yl]oxy]propan-1-ol]

IC50 [1, 2]: 0.0689 µM
IC50 (recombinant human cGAS): 0.00356 µM
SMILES: O=C(Nc1cc(Cl)c(Cl)c2[nH]cc(-c3cn[nH]c3)c12)C(F)F [Example 171, N-[6,7-Dichloro-3-(1H-pyrazol-4-yl)-1H-indol-4-yl]-2,2-difluoro-acetamide]
